Assay results published in US20240215905A1, “WOUND DRESSING” (5D HEALTH PROTECTION GROUP LTD, priority 2021, published 2024).

Assays:
[1] = Optical density measurements indicating AgCl precipitates/aggregates in solution; assay type: physicochemical; details: no bacteria present
Source text: Optical density measurements can be used to indicate the presence of AgCl precipitates/aggregates in solution. […] No bacteria where present for the measurements.

Pseudomonas = test: Bacterial proliferation assay (Colony Forming Units) with added silver; assay type: cell-based; details: for added Ag^+ concentration at which antibacterial efficacy is apparent: 0.3 ppm is the lowest concentration measured (range 0.3 to 300 ppm)
Protocol: To assess the antibacterial efficacy of the silver, and to correlate this with the sensor response, bacterial proliferation assays were performed on MHB2, PBS, NaNO3 and SWF solutions with added silver at concentrations between 0.3 to 300 ppm.

[Ag+] [Ag^+, silver ions]
added Ag^+ concentration above which AgCl precipitation is seen (optical density) ([1]; PBS): above 1 ppm | added Ag^+ concentration above which AgCl precipitation is seen (optical density) ([1]; SWF): above 30 ppm | added Ag^+ concentration at which antibacterial efficacy is apparent (Pseudomonas; NaNO3 solution): ≤ 0.3 ppm | added Ag^+ concentration at which antibacterial efficacy is apparent (Pseudomonas; PBS solution): ≤ 0.3 ppm | added Ag^+ concentration at which antibacterial efficacy is seen (Pseudomonas; SWF (simulated wound fluid, 33 g/L BSA) solution): ≥ 30 ppm
